{
  "source": "patent US11492629B2",
  "about": "“Extra-chromosomal circular DNA-mediated engineering of plant traits” (Kansas State University Research Foundation, priority 2019, dated 2022)",
  "type_in_all_cases": "in vivo, Amaranthus palmeri",
  "key": {"[1]": {"test_system": "GS A. palmeri plants (<20 EPSPS copies)", "experiment": "Glyphosate selection of glyphosate-susceptible (GS) seedlings in greenhouse, plant survival", "text": "(§1) To investigate the evolution of resistance to glyphosate in response to glyphosate selection pressure, we exposed GS plants (<20 EPSPS copies) to glyphosate for one generation to determine the EPSPS copy number and eccDNA variation in each generation and assess the possibility of evolution of resistance to continuous exposure to glyphosate via eccDNA containing EPSPS gene amplification. This process can be repeated for 6 to 8 generations. We also initiated experiments to examine the reversal of glyphosate resistance to susceptibility in the absence of glyphosate selection pressure by growing GR plants (>80-100 EPSPS copies) in the absence of glyphosate selection and generating progenies by random mating. This process can be repeated for 6 to 8 generations. A portion of progenies will be screened for susceptibility or resistance to glyphosate and determine the EPSPS gene copies and presence or absence of eccDNA in each generation.\nApproximately 1,009 seedlings were grown in greenhouse and treated with 0.25, 0.5 and 1× glyphosate (1×: 840 g ae/ha). The survivors have been selected for seed production of G-2 seed. Leaf tissue from 40 plants were collected for copy number analysis before the treatment with glyphosate. Additionally, the leaf samples were also collected from plants (at least 5) that survived glyphosate application."}, "[2]": {"test_system": "progeny of GR A. palmeri plants (>80-100 EPSPS copies)", "experiment": "Response to 1x glyphosate of progeny from randomly mated glyphosate-resistant (GR) plants grown without selection", "text": "as §1\nThe progeny generated from random mating of GR plants (>80-100 EPSPS copies) were used in this study. The seed collected from two GR plants (allowed to mate randomly) were planted and seedlings were generated. Approximately 100 plants from each GR plant were grown in the greenhouse without exposure to glyphosate for seed production. Additionally, approximately 127 seedlings from each of the above GR plant were also grown separately and treated with 1× dose of glyphosate to assess their response. Leaf tissue from 40 plants each was also collected for only EPSPS copy number analysis."}, "[3]": {"test_system": "A. palmeri plants", "experiment": "Whole-plant glyphosate treatment of field-collected A. palmeri, injury versus untreated check", "settings": "868 g ae ha plus 2% (w/v) ammonium sulfate", "text": "A. palmeri plants used in this study were generated from seeds collected from a field near Manhattan, Kans., USA, where there was incident of lack of control of this population with glyphosate application in the previous season. This field was exposed to frequent applications of glyphosate in Roundup Ready soybean, grown in rotation. Seed of A. palmeri was randomly sampled from ten plants and pooled. Sixty seedlings from the above sample along with a known glyphosate-susceptible (GS) A. palmeri were germinated and seedlings were transplanted individually into Miracle-Gro potting mix (Marysville, Ohio) in 10 cm×10 cm×10 cm plastic pots and watered from top in a greenhouse (25/20° C. temperature; 15/9 h light day/night, supplemented with […] illumination using sodium vapor lamps). At least 20 plants (10 to 12 cm tall) were treated separately with field use rate [868 g ae ha^−1 plus 2% (w/v) ammonium sulfate] or twice the field use rate of glyphosate. […] Plant survival was assessed four weeks after treatment.\nIn response to glyphosate treatment [868 g ae ha′ plus 2% (w/v) ammonium sulfate], plants showing injury levels of high (>80%) and low (<30%) in comparison to untreated check were grouped as GS and glyphosate-resistant (GR), respectively. […] DNA was quantified on Nanodrop Spectrophotometer."}, "[4]": {"settings": "glyphosate rate 0.25X (1X: 840 g ae/ha), 160 treated plants"}, "[5]": {"settings": "glyphosate rate 0.5X (1X: 840 g ae/ha), 430 treated plants"}, "[6]": {"settings": "glyphosate rate 1X (1X: 840 g ae/ha), 419 treated plants"}, "[7]": {"settings": "seedlings from plant GR1, 1x glyphosate, 127 plants treated"}, "[8]": {"settings": "seedlings from plant GR2, 1x glyphosate, 122 plants treated"}},
  "data": [
    {"smiles": "O=C(O)CNCP(=O)(O)O", "note": "[Glyphosate, N-(phosphonomethyl) glycine]", "values": [
      {"measurement": "% survival", "setting": "[1]; glyphosate rate 0.25X (1X: 840 g ae/ha)", "value": 16, "unit": "%"},
      {"measurement": "Alive", "setting": "[1]; [4]", "value": 26},
      {"measurement": "Dead", "setting": "[1]; [4]", "value": 134},
      {"measurement": "% survival", "setting": "[1]; glyphosate rate 0.5X (1X: 840 g ae/ha)", "value": 4, "unit": "%"},
      {"measurement": "Alive", "setting": "[1]; [5]", "value": 18},
      {"measurement": "Dead", "setting": "[1]; [5]", "value": 412},
      {"measurement": "% survival", "setting": "[1]; glyphosate rate 1X (1X: 840 g ae/ha)", "value": 3, "unit": "%"},
      {"measurement": "Alive", "setting": "[1]; [6]", "value": 13},
      {"measurement": "Dead", "setting": "[1]; [6]", "value": 406},
      {"measurement": "% survival", "setting": "[2]; seedlings from plant GR1, 1x glyphosate", "value": 68, "unit": "%"},
      {"measurement": "Alive", "setting": "[2]; [7]", "value": 86},
      {"measurement": "Dead", "setting": "[2]; [7]", "value": 41},
      {"measurement": "% survival", "setting": "[2]; seedlings from plant GR2, 1x glyphosate", "value": 72, "unit": "%"},
      {"measurement": "Alive", "setting": "[2]; [8]", "value": 88},
      {"measurement": "Dead", "setting": "[2]; [8]", "value": 34},
      {"measurement": "injury level in comparison to untreated check", "setting": "[3]; plants grouped as GR (low injury)", "value": "< 30", "unit": "%"},
      {"measurement": "injury level in comparison to untreated check", "setting": "[3]; plants grouped as GS (high injury)", "value": "> 80", "unit": "%"}
    ]}
  ]
}
